# According to patent US20110071630A1, “SODIUM CHANNEL BLOCKER DELIVERY SYSTEM WITH SCLERAL LENS” (Boston Foundation for Sight, priority 2009, published 2011):
# Experiments:
# [1] = system: cornea; conditions: 0.05% concentration, after photorefractive keratectomy; cited from earlier work
# [2] = system: cornea; experiment: Examination of the cornea for adverse effects (fluorescein staining, slit lamp examination, confocal microscopy); assay type: in vivo, human
# Protocol: They wore the BOS-P containing 0.001% bupivacaine in their left eye, and the BOS-P containing saline in their right eye unmasked to the patient and doctor, for about 8 hours. […] Corneal sensation in the treated eye was normal.
# The patient returned the following day 2 hours after inserting the scleral lenses containing 0.015% ropivacaine.
# A patient suffered from severe corneal neuropathic pain for many years, greatly limiting the patient's quality of life. This disease was refractory to previous treatments. Lacosamide was placed in the fluid reservoir of the device where it remained in contact with the cornea while it was worn (approximately 10 hours/day).
# [3] = system: corneal neuropathic pain; experiment: Treatment of corneal neuropathic pain in patients, drug solution in the fluid reservoir of a scleral lens (BOS-P); assay type: in vivo, human
# Protocol: (§1) A patient with well established primary Sjögren's syndrome and severe dry eyes was treated for intense, constant corneal pain using the anesthetic delivery system disclosed herein. Specifically, the patient was treated with bupivacaine and BOS-P devices. The concentration of non-preserved bupivacaine was rapidly titrated using frequent (every 2-5 minutes) drops in the more symptomatic left eye (open label) measuring corneal sensitivity with a Cochet-Bonnet aesthesiometer (with adequate recovery times) until reaching the concentration that avoided any depression of corneal sensitivity. The sub-anesthetic concentration in this patient was determined to be 0.001%. Both BOS-P devices were filled with 0.001% bupivacaine and inserted into the patient's eyes. The patient then left.
# The patient was given a vial of 0.01% bupivacaine to dilute 1:10 (e.g., add one drop of 0.01% bupivacaine to nine drops of saline) to fill the reservoir of the left lens prior to inserting it the next morning.
# They wore the BOS-P containing 0.001% bupivacaine in their left eye, and the BOS-P containing saline in their right eye unmasked to the patient and doctor, for about 8 hours. […] Corneal sensation in the treated eye was normal. […]
# [4] = system: corneal sensation; experiment: Corneal sensitivity measured with a Cochet-Bonnet aesthesiometer; assay type: in vivo, human
# Description: The sub-hypoesthetic dose for a sodium channel blocker or a sodium channel modulator may vary between patients. […] The sub-hypoesthetic dose of a sodium channel blocker or a sodium channel modulator can be determined for an individual patient by selecting a higher starting concentration and gradually reducing the concentration via titration until reaching a sub-hypoesthetic dose as determined by a contact and non-contact esthesiometer. A non-limiting example of a method of determining corneal sensitivity is Cochet-Bonnet aesthesiometry.
# As used herein, the phrases “sub-anesthetic dose” and “sub-anesthetic concentration” refer to a dose of a sodium channel blocker or a sodium channel modulator or a sodium channel modulator that is lower than the anesthetic dose. “Sub-anesthetic dose” and “sub-anesthetic concentration” may be used interchangeably. The sub-anesthetic dose of a sodium channel blocker or a sodium channel modulator may vary between patients. The sub-anesthetic dose of a sodium channel blocker or a sodium channel modulator can be determined for an individual patient by selecting a higher starting concentration and gradually reducing the concentration via titration until reaching a sub-anesthetic dose as determined by a contact and non-contact esthesiometer. A non-limiting example of a starting concentration of a sodium channel blocker or a sodium channel modulator is about 0.02%. In some embodiments, the concentration of the sodium channel blocker or a sodium channel modulator may be titrated down to a concentration that avoids any depression of corneal sensitivity. A non-limiting example of a method of determining corneal sensitivity is Cochet-Bonnet aesthesiometry.
# as §1
# The patient was given a vial of 0.01% bupivacaine to dilute 1:10 (e.g., add one drop of 0.01% bupivacaine to nine drops of saline) to fill the reservoir of the left lens prior to inserting it the next morning. […]
# [5] = system: corneal neuropathic pain; experiment: Eye drops without scleral lens for corneal neuropathic pain; assay type: in vivo, human; conditions: Example 5, eye drops 0.5% lacosamide
# Protocol: Eye drops containing 0.5% lacosamide were administered to the eyes of two patients and to the an eye of the inventor. […] Therefore, it is believed that lacosamide may be used in eye drops at a concentration of up to 5% to treat corneal neuropathic pain without depressing corneal sensation.
compound,measurement,setting,value
"CCCOc1ccc(C(=O)OCCN(CC)CC)cc1N [Proparacaine, proparacaine]","anesthetic effect, toxicity and safety",[1],"non-anesthetic, non-toxic, and safe for at least one week of use"
CCCCN1CCCCC1C(=O)Nc1c(C)cccc1C (stereo not shown) [bupivacaine],fluorescein staining after lens removal,[2]; in vivo,no significant fluorescein staining in either eye
same,eye comfort reported by patient,"[3]; Example 1, next day after both BOS-P devices were filled with 0.001% bupivacaine",more comfortable than they had been in 3 months
same,pain reported by patient at day's end,"[3]; Example 1, second day, left lens reservoir filled with non-preserved bupivacaine",virtual absence of pain in either eye
same,pain after exposure to glass cleaner or white board marker,"[3]; Example 1, second day, exposure would ordinarily trigger severe pain",little or no pain
same,pain reported after about 8 hours of wear,"[3]; Example 1, third day, 0.001% bupivacaine in left BOS-P, saline in right BOS-P",virtually no pain in either eye
same,"pain, Visual Analog Scale","[3]; Example 1, third day, on arrival",virtually no pain in either eye
same,"eye symptoms (photosensitivity, burning pain, inability to read)","[3]; Example 2, 0.002% bupivacaine in both BOS-P lenses, at least 12 hours/day, over several weeks",resolved
same,eye symptoms,"[3]; Example 2, bupivacaine diluted to 0.0014% in BOS-P",resolved
same,sub-anesthetic concentration (concentration that avoided any depression of corneal sensitivity),"[4]; Example 1, Sjögren's syndrome patient, titration with drops every 2-5 minutes in left eye",0.001%
same,corneal sensation by Cochet-Bonnet aesthesiometry,[4]; in vivo,remained intact
COC[C@@H](NC(C)=O)C(=O)NCc1ccccc1 [lacosamide],effects on the corneas by slit lamp examination and confocal microscopy,"[2]; Example 4, 0.003% lacosamide in BOS-P",without any detrimental effects to the corneas
same,corneal neuropathic pain,"[3]; Example 4, 0.003% lacosamide in BOS-P, approximately 10 hours/day",significantly mitigated
same,eye and co-morbid pain symptoms,"[3]; Example 6, chronic graft versus host disease patient, lacosamide 0.05% in scleral lens reservoir",disappeared
same,"duration of effect, one patient",[5],over four hours
same,"duration of effect, the other patient",[5],over two hours
same,onset of pain resolution,[5],almost immediately after administration
same,corneal neuropathic pain,[5]; both patients,complete resolution of corneal neuropathic pain
same,maximum concentration that avoided significant depression of corneal sensation,"[4]; Example 4, titration, fluid reservoir of BOS-P",0.003%
same,corneal sensation,"[4]; Example 5, eye drops 0.5% lacosamide, two patients and an eye of the inventor",did not depress corneal sensation
CCCN1CCCC[C@H]1C(=O)Nc1c(C)cccc1C [ropivacaine],adverse effects on the eyes from the treatment,[2]; in vivo,no adverse effects
same,treatment-related complications at subsequent examinations,[2]; in vivo,without adverse treatment-related complications
same,"eye pain and photophobia, lenses worn until midnight the previous day","[3]; Example 3, 0.015% ropivacaine in scleral lenses",total resolution of eye pain and photophobia
same,"symptoms at examination, 2 hours after inserting lenses","[3]; Example 3, 0.015% ropivacaine, following day",free of symptoms
same,eye pain and photosensitivity following application,"[3]; Example 3, Stevens-Johnson syndrome patient, 0.015% ropivacaine in scleral lenses, first day",rapid mitigation of eye pain and photosensitivity
same,eye pain and photophobia at subsequent examinations,"[3]; Example 3, ropivacaine in scleral lenses",significant mitigation of eye pain and photophobia
same,corneal sensitivities at subsequent examinations,[4]; in vivo,normal corneal sensitivities
same,corneal sensitivity by Cochet-Bonnet aesthesiometer,[4]; in vivo,normal
